The source of these data is patent US20250340574A1, “MODULATORS OF CYSTIC FIBROSIS TRANSMEMBRANE CONDUCTANCE REGULATOR” (Vertex Pharmaceuticals Incorporated, priority 2022, published 2025).

The conditions of data set [1]: amide bond, 13-membered ring, CDMT/NMM.
Data set [2] concerns the target T1, CFTR (F508del/MF-HBE cells) (Homo sapiens, UniProt P13569, DEL508-508).
T1 construct: human bronchial epithelial (HBE) cells derived from CF subjects heterozygous for F508del and a minimal function CFTR mutation (F508del/MF-HBE); endogenous in cells; host or cells: Primary human bronchial epithelial cells from CF subjects (F508del/MF genotype), differentiated at an air-liquid interface
Description: Ussing chamber assay of CFTR-mediated short-circuit currents, Assay D (single concentration of 1 μM). It is filed as cell-based. As to conditions: with 44 nM potentiator and 18 μM Tezacaftor, 18-24 hours, 20% human serum. The method, boiled down: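 F508del/MF-HBE cells grown at air-liquid interface were incubated 18-24 h at 37 °C in 20% human serum with correctors plus 18 μM tezacaftor and a fixed partner compound (33 nM for concentration series, 44 nM at 1 μM). ISC was read at 0 mV after 20 μM forskolin, minus the post-inhibitor current.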

SMILES strings stand for the structures. “And” between values parts separate entries of the source, which are not always exact repeats. Equal entries are not always repeated. Where two headings read alike, the source gives them in different places.

T1 sequence (P13569 with tags, fused parts or gaps DEL508-508): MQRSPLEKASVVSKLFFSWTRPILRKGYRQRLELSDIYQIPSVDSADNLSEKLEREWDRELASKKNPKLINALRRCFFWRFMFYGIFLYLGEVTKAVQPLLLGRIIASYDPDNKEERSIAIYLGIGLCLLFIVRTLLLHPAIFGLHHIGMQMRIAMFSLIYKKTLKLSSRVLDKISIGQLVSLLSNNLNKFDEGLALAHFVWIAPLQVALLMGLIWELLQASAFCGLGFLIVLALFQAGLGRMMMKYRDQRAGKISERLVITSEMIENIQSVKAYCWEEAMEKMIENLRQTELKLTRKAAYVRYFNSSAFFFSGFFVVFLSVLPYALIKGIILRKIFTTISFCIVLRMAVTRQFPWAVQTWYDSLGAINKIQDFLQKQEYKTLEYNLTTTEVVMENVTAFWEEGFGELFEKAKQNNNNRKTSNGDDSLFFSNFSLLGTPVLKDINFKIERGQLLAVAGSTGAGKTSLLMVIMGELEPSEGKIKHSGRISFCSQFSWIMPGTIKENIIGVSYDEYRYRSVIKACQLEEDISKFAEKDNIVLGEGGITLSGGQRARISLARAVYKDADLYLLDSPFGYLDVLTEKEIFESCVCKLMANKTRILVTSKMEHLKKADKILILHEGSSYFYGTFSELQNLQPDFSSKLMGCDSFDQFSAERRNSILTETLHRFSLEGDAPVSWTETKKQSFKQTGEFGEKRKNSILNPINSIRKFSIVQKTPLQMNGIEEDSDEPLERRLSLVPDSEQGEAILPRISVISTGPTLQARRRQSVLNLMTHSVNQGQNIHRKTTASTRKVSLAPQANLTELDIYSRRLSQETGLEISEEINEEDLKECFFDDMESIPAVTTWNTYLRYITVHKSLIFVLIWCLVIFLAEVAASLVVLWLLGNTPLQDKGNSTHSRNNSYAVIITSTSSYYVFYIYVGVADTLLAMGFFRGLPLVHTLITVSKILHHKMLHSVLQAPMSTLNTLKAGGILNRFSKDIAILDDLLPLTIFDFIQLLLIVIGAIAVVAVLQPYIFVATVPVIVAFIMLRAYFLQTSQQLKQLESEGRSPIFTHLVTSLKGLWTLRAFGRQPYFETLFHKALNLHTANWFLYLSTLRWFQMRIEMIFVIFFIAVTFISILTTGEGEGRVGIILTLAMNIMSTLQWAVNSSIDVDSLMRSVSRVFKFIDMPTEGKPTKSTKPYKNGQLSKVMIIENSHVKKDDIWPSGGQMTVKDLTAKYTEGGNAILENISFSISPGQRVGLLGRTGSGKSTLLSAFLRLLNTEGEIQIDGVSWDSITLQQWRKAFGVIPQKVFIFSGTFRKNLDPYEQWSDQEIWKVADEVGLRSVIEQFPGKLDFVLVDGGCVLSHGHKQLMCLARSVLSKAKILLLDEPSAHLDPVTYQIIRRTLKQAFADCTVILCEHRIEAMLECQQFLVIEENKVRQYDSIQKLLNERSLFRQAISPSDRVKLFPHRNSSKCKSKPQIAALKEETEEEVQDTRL

`Cc1cccc(C)c1-c1cc2nc(n1)NS(=O)(=O)c1cccc(c1)C(=O)N(Cc1cnc3c(n1)CN(C(C)C)C3=O)[C@H](CC13CC(C1)C3)CO2` [III-16, (11R)-11-(1-bicyclo[1.1.1]pentanylmethyl)-6-(2,6-dimethylphenyl)-12-[(6-isopropyl-7-oxo-5H-pyrrolo[3,4-b]pyrazin-3-yl)methyl]-2,2-dioxo-9-oxa-2λ^6-thia-3,5,12,19-tetrazatricyclo[12.3.1.14,8]nonadeca-1(18),4(19),5,7,14,16-hexaen-13-one] gave a ring closure, yield after HPLC in data set [1] (from Cc1cccc(C)c1-c1cc(OC[C@@H](CC23CC(C2)C3)NCc2cnc3c(n2)CN(C(C)C)C3=O)nc(NS(=O)(=O)c2cccc(C(=O)O)c2)n1, DMF, 13.0 mM, 16.5 h) of 39%. The “D activity at 1 μM (%)” value in data set [2] is “+++ (+++ is >60%)”.

Consider `Cc1cccc(C)c1-c1cc2nc(n1)NS(=O)(=O)c1cccc(c1)C(=O)N(Cc1cnc3oc(C(C)C)cc3n1)[C@H](CC1CCCOC1)CO2` (single isomer, unassigned) [Compound I-66], for which, in data set [1] (from Cc1cccc(C)c1-c1cc(OC[C@@H](CC2CCCOC2)NCc2cnc3oc(C(C)C)cc3n2)nc(NS(=O)(=O)c2cccc(C(=O)O)c2)n1, DMF, 11.8 mM, 72.5 h), the ring closure, yield after HPLC is 17% and 20%. The “D activity at 1 μM (%)” value in data set [2] was “+++ (+++ is >60%)”.

With `Cc1cccc(C)c1-c1cc2nc(n1)NS(=O)(=O)c1cccc(c1)C(=O)N(Cc1cc3ccn(C(C)C)c3cn1)[C@H](CC1(C)CC1)CO2` [III-25, (11R)-6-(2,6-Dimethylphenyl)-12-[(I-isopropylpyrrolo[2,3-c]pyridin-5-yl)methyl]-11-[(I-methylcyclopropyl)methyl]-2,2-dioxo-9-oxa-2λ^6-thia-3,5,12,19-tetrazatricyclo[12.3.1.14,8]nonadeca-1(18),4(19),5,7,14,16-hexaen-13-one], the ring closure, yield after HPLC in data set [1] (from Cc1cccc(C)c1-c1cc(OC[C@@H](CC2(C)CC2)NCc2cc3ccn(C(C)C)c3cn2)nc(NS(=O)(=O)c2cccc(C(=O)O)c2)n1, DMF, 9.73 mM, 16.33 h) came to 50%. Moreover, the “D activity at 1 μM (%)” value in data set [2] is “+++ (+++ is >60%)”.

The molecule `COc1c2nc(nc1-c1c(C)cccc1C)NS(=O)(=O)c1cccc(c1)C(=O)N(Cc1cnc3oc(C(C)C)cc3n1)[C@H](CC(C)(C)C)CC2` [Compound I-157, (11S)-6-(2,6-Dimethylphenyl)-11-(2,2-dimethylpropyl)-12-[(6-isopropylfuro[2,3-b]pyrazin-2-yl)methyl]-7-methoxy-2,2-dioxo-2λ^6-thia-3,5,12,19-tetrazatricyclo[12.3.1.14,8]nonadeca-1(18),4(19),5,7,14,16-hexaen-13-one] returned a ring closure, yield after HPLC in data set [1] (from COc1c(CC[C@@H](CC(C)(C)C)NCc2cnc3oc(C(C)C)cc3n2)nc(NS(=O)(=O)c2cccc(C(=O)O)c2)nc1-c1c(C)cccc1C, DMF, 11.0 mM, 3.5 h) of 62%. Further, the “D activity at 1 μM (%)” value in data set [2] is on record as “+++ (+++ is >60%)”.

Take `Cc1cccc(C)c1-c1cc2nc(n1)NS(=O)(=O)c1cccc(c1)C(=O)N(Cc1cnc3oc(C(C)C)c(NC(=O)OC(C)(C)C)c3n1)[C@H](CC1(C)CC1)CO2` [Compound I-210, tert-Butyl N-[2-[[(11R)-6-(2,6-dimethylphenyl)-11-[(1-methylcyclopropyl)methyl]-2,2,13-trioxo-9-oxa-2λ^6-thia-3,5,12,19-tetrazatricyclo[12.3.1.14,8]nonadeca-1(18),4(19),5,7,14,16-hexaen-12-yl]methyl]-6-isopropyl-furo[2,3-b]pyrazin-7-yl]carbamate]: the ring closure, yield after HPLC in data set [1] (from Cc1cccc(C)c1-c1cc(OC[C@@H](CC2(C)CC2)NCc2cnc3oc(C(C)C)c(NC(=O)OC(C)(C)C)c3n2)nc(NS(=O)(=O)c2cccc(C(=O)O)c2)n1, DMF, 13.4 mM, 5.5 h) is 55%. Also, the “D activity at 1 μM (%)” value in data set [2] is “+++ (+++ is >60%)”.

Consider `Cc1cccc(C)c1-c1cc2nc(n1)NS(=O)(=O)c1cccc(c1)C(=O)N(Cc1cnc3nc(C(C)C)oc3n1)[C@H](CC1(C)CC1)CO2` [Compound I-159, (11R)-6-(2,6-Dimethylphenyl)-12-[(2-isopropyloxazolo[4,5-b]pyrazin-6-yl)methyl]-11-[(I-methylcyclopropyl)methyl]-2,2-dioxo-9-oxa-2λ^6-thia-3,5,12,19-tetrazatricyclo[12.3.1.14,8]nonadeca-1(18),4(19),5,7,14,16-hexaen-13-one], for which the ring closure, yield after HPLC in data set [1] (from Cc1cccc(C)c1-c1cc(OC[C@@H](CC2(C)CC2)NCc2cnc3nc(C(C)C)oc3n2)nc(NS(=O)(=O)c2cccc(C(=O)O)c2)n1, DMF, 26.6 mM, 2.08 h) was found to be 26%. Moreover, the “D activity at 1 μM (%)” value in data set [2] is “+++ (+++ is >60%)”.

With `Cc1cccc(C)c1-c1cc2nc(n1)NS(=O)(=O)c1cccc(c1)C(=O)N(Cc1cnc3oc(C4CC4)cc3n1)[C@H](C=C1CCC1)CO2` [Compound I-154, (11R)-11-(cyclobutylidenemethyl)-12-[(6-cyclopropylfuro[2,3-b]pyrazin-2-yl)methyl]-6-(2,6-dimethylphenyl)-2,2-dioxo-9-oxa-2λ^6-thia-3,5,12,19-tetrazatricyclo[12.3.1.14,8]nonadeca-1(18),4(19),5,7,14,16-hexaen-13-one], in data set [1] (from Cc1cccc(C)c1-c1cc(OC[C@@H](C=C2CCC2)NCc2cnc3oc(C4CC4)cc3n2)nc(NS(=O)(=O)c2cccc(C(=O)O)c2)n1, DMF, 25.1 mM, 2.08 h), the ring closure, yield after HPLC worked out at 14%. Also, in data set [2], the “D activity at 1 μM (%)” value is reported as “+++ (+++ is >60%)”.

`Cc1cccc(C)c1-c1cc2nc(n1)NS(=O)(=O)c1cccc(c1)C(=O)N(Cc1cnc3nc(C4CC4)n(C)c3n1)[C@H](CC13CC(C1)C3)CO2` [Compound I-175, (11R)-11-(1-Bicyclo[1.1.1]pentanylmethyl)-12-[(2-cyclopropyl-3-methyl-imidazo[4,5-b]pyrazin-5-yl)methyl]-6-(2,6-dimethylphenyl)-2,2-dioxo-9-oxa-2λ^6-thia-3,5,12,19-tetrazatricyclo[12.3.1.14,8]nonadeca-1(18),4(19),5,7,14,16-hexaen-13-one] yielded a ring closure, yield after HPLC in data set [1] (from Cc1cccc(C)c1-c1cc(OC[C@@H](CC23CC(C2)C3)NCc2cnc3nc(C4CC4)n(C)c3n2)nc(NS(=O)(=O)c2cccc(C(=O)O)c2)n1, DMF, 11.1 mM, 16.5 h) of 28%. Also, the “D activity at 1 μM (%)” value in data set [2] is given as “+++ (+++ is >60%)”.

In data set [1] (from Cc1cccc(C)c1-c1cc(OC[C@@H](CC2(C)CC2)NCc2cnc3oc(C(C)C)nc3n2)nc(NS(=O)(=O)c2cccc(C(=O)O)c2)n1, DMF, 23.5 mM, 2.08 h), `Cc1cccc(C)c1-c1cc2nc(n1)NS(=O)(=O)c1cccc(c1)C(=O)N(Cc1cnc3oc(C(C)C)nc3n1)[C@H](CC1(C)CC1)CO2` [Compound I-149, (11R)-6-(2,6-Dimethylphenyl)-12-[(2-isopropyloxazolo[4,5-b]pyrazin-5-yl)methyl]-11-[(1-methylcyclopropyl)methyl]-2,2-dioxo-9-oxa-2λ^6-thia-3,5,12,19-tetrazatricyclo[12.3.1.14,8]nonadeca-1(18),4(19),5,7,14,16-hexaen-13-one] displayed a ring closure, yield after HPLC of 40%. Further, the “D activity at 1 μM (%)” value in data set [2] is given as “+++ (+++ is >60%)”.

With `Cc1cccc(C)c1-c1cc2nc(n1)NS(=O)(=O)c1cccc(c1)C(=O)N(Cc1cnc3oc(C4CC4)cc3n1)[C@H](Cc1ccccc1)CO2` [Compound I-191, (11R)-11-Benzyl-12-[(6-cyclopropylfuro[2,3-b]pyrazin-2-yl)methyl]-6-(2,6-dimethylphenyl)-2,2-dioxo-9-oxa-2λ^6-thia-3,5,12,19-tetrazatricyclo[12.3.1.14,8]nonadeca-1(18),4(19),5,7,14,16-hexaen-13-one], the ring closure, yield after HPLC in data set [1] (from Cc1cccc(C)c1-c1cc(OC[C@@H](Cc2ccccc2)NCc2cnc3oc(C4CC4)cc3n2)nc(NS(=O)(=O)c2cccc(C(=O)O)c2)n1, DMSO, 2.75 h) is 60%. In addition, the “D activity at 1 μM (%)” value in data set [2] is given as “+++ (+++ is >60%)”.

On to `Cc1cccc(C)c1-c1cc2nc(n1)NS(=O)(=O)c1cccc(c1)C(=O)N(Cc1cnc3oc(C(C)C)c(C(F)(F)F)c3n1)[C@H](CC1(C)CC1)CO2` [Compound I-126, (11R)-6-(2,6-dimethylphenyl)-12-[[6-isopropyl-7-(trifluoromethyl)furo[2,3-b]pyrazin-2-yl]methyl]-11-[(1-methylcyclopropyl)methyl]-2,2-dioxo-9-oxa-2λ^6-thia-3,5,12,19-tetrazatricyclo[12.3.1.14,8]nonadeca-1(18),4(19),5,7,14,16-hexaen-13-one], for which the ring closure, yield after HPLC in data set [1] (from Cc1cccc(C)c1-c1cc(OC[C@@H](CC2(C)CC2)NCc2cnc3oc(C(C)C)c(C(F)(F)F)c3n2)nc(NS(=O)(=O)c2cccc(C(=O)O)c2)n1, DMF, 12.1 mM, 16.5 h) was found to be 36%. In data set [2], the “D activity at 1 μM (%)” value was “+++ (+++ is >60%)”.

`Cc1cccc(C)c1-c1cc2nc(n1)NS(=O)(=O)c1cccc(c1)C(=O)N(Cc1ccc3oc(C4(C)CC4)cc3n1)[C@H](CC13CC(C1)C3)CO2` [Compound I-225, (11R)-11-(1-Bicyclo[1.1.1]pentanylmethyl)-6-(2,6-dimethylphenyl)-12-[[2-(1-methylcyclopropyl)furo[3,2-b]pyridin-5-yl]methyl]-2,2-dioxo-9-oxa-2λ^6-thia-3,5,12,19-tetrazatricyclo[12.3.1.14,8]nonadeca-1(18),4(19),5,7,14,16-hexaen-13-one] showed a ring closure, yield after HPLC in data set [1] (from Cc1cccc(C)c1-c1cc(OC[C@@H](CC23CC(C2)C3)NCc2ccc3oc(C4(C)CC4)cc3n2)nc(NS(=O)(=O)c2cccc(C(=O)O)c2)n1, DMF) of 61%. In data set [2], the “D activity at 1 μM (%)” value is listed as “+++ (+++ is >60%)”.
